Key:
[1] = test system: Hep1c1c7 cells; assay: Cell lysis inhibition assay (normal human serum, WST-8); format: cell-based; details: NHS dose causing 70% cell lysis
Protocol: To test biological function of sCD59, cell lysis inhibition assay was performed using Hep1c1c7 cells. The serum dose causing approximately 70% cell lysis was determined for the new normal human serum (NHS) before the purified sCD59 proteins were used for cell lysis inhibition assay. Three hours prior to the experiment, 1×10^4 cells per well were seeded onto a 96-well plate. Various doses of NHS were mixed with GVB2++ buffer (with Ca^2+ and Mg^2+) (Complement Technology, Cat. B100). 100 μL of mixture was added to each well. Background lysis was measured using GVB2++ buffer only and maximum lysis was measured by lysing all the cells with Maximum Lysis Buffer (GVB2++ plus 1% SDS). […] The absorbance at 450 nm was measured using a microplate reader. To calculate the percentage of live cells, the absorbance was subtracted by the Max Lysis, divided by Background Lysis minus Max Lysis and multiplied by 100, which equaled the % of live cells. The % of dead cells was calculated by subtracting 100 by the % of live cells. In the GraphPad Prism, the % of cell death was plotted against dose of NHS, and the dose of NHS causing 50% and 70% hemolysis was respectively determined (FIG. 15A). […]
To test biological function of vsCD59, cell lysis inhibition assay is performed using Hep1c1c7 cells. […] The absorbance at 450 nm is measured using a microplate reader. […]

[2] = molecular target: T1, C3c (Homo sapiens, UniProt P01024); assay: Binding affinity to C3c by Biacore
T1 construct: C3, C3b and C3c proteins were immobilized in flow cell 2 or 4

[3] = test system: NIH-3T3 cells; assay: cGMP production in NIH-3T3 cells; format: cell-based
[4] = test system: rabbit erythrocytes; assay: Hemolysis inhibition assay with rabbit erythrocytes and normal human serum; format: cell-based
Protocol: In parallel, serum dose causing approximately 70% hemolysis was determined for new normal human serum (NHS) before the purified proteins were used for a hemolysis inhibition assay. Various doses of NHS were mixed with rabbit erythrocytes (Cat. B300, Complement Technology) in the presence of 0.1 M Mg2+ EGTA (Cat. B106, Complement Technology). Background lysis was measured using GVBE (GVBo plus 20 mM EDTA, pH 7.4), and maximum lysis was measured by lysing all the cells with Maximum Lysis Buffer (GVBo+0.2% NP40). After all the samples were mixed on ice, they were transferred to 37° C. water bath. The samples were vortexed every 5 minutes and incubated for 30 minutes in total. 1 mL of cold GVBE was added into each tube to stop the reaction. After samples were centrifuged for 3 min at approximately 1000× g to pellet cells, the supernatant was transferred to a cuvette and read at 412 nm in SpectaMax iD3 microplate reader. Each reading was normalized to the background, divided by Max Lysis minus background, and multiplied by 100, which equaled % of Max Lysis. Using the GraphPad Prism software, the % of Max Lysis was plotted against microliters of NHS, and the dose of NHS causing 50% and 70% hemolysis was respectively determined.
Using the NHS dose causing 70% hemolysis, the purified mutant proteins were utilized for a hemolysis inhibition assay. All mutant proteins were 2× serially diluted and mixed with the rabbit erythrocytes in the presence of NHS, resulting in the final concentration of […], 4.10, 2.05, and 1.02 μM of each mutant protein. The benchmark, CP40 peptide, was also used in this study. After each reading was subtracted from the background, it was divided by 70% hemolysis minus background and multiplied by 100. The value was considered as % of hemolysis inhibition. The percentage of hemolysis inhibition was plotted against the molecular concentration of mutant proteins by GraphPad Prism software and IC50 value was estimated based on the data plotting.

[5] = molecular target: C3 (Homo sapiens, UniProt P01024); assay: Binding affinity to C3 by Biacore
Protocol: (§1) The estimated IC50 of the C3i fusion proteins were measured as shown above. Next their binding affinity with Complement C3b, C3c, and C3 was tested. Binding affinity was measured using Biacore. Biosensor analysis was performed at room temperature in a running buffer (1×HBS, 20 mM NaH2PO4-Na2HPO4·H2O, 150 mM NaCl, pH 7.4, supplemented with 0.005% (v/v) surfactant P20), using a Biacore 3000 optical biosensor equipped with a research-grade CM5 sensor chip. C3, C3b and C3c proteins were immobilized in flow cell 2 or 4 via standard amine coupling, leaving Fc1 or 3 unmodified to serve as a reference surface. The immobilization levels of proteins were calculated using Rmax=100 RU and the ratio of ligand molecular weight/analyte molecular. Data analysis was conducted using the BIAevaluation software. All sensorgrams were double-referenced by subtracting the response on a reference flow cell and a blank sample. Five 2× serial dilution samples were injected sequentially from low concentration to high concentration of proteins at a flow rate of 30 μL/min (300 seconds for each), followed by a dissociation time of 900 seconds. Calculations of kinetic parameters were conducted assuming a simple 1:1 (Langmuir) binding.
(§2) After the testing concentrating was optimized for individual proteins, they were applied on the immobilized chip, and association rate constant (Ka, M^−1s^−1), dissociation constant (Kd, s^−1), equilibrium dissociation constant (KD, M), maximal feasible signal (Rmax), and chi^2 were recorded. The results for complement C3b, C3c, and C3 are listed in Table 22, Table 23, and Table 24, respectively. […] The estimated IC50 of C3i and its fusion proteins and their binding affinity (KD) against C3b, C3c, and C3 are shown in Table 25. When KD values were plotted against estimated IC50, they correlated well with each other for C3b (FIG. 23A) and C3c (FIG. 23B) and, in most cases, for C3 (FIG. 23C).

[6] = molecular target: C3b (Homo sapiens, UniProt P01024); assay: Binding affinity to C3b by Biacore
Protocol: as §1, §2

Chain of C3b (P01024 23-667 limits assumed): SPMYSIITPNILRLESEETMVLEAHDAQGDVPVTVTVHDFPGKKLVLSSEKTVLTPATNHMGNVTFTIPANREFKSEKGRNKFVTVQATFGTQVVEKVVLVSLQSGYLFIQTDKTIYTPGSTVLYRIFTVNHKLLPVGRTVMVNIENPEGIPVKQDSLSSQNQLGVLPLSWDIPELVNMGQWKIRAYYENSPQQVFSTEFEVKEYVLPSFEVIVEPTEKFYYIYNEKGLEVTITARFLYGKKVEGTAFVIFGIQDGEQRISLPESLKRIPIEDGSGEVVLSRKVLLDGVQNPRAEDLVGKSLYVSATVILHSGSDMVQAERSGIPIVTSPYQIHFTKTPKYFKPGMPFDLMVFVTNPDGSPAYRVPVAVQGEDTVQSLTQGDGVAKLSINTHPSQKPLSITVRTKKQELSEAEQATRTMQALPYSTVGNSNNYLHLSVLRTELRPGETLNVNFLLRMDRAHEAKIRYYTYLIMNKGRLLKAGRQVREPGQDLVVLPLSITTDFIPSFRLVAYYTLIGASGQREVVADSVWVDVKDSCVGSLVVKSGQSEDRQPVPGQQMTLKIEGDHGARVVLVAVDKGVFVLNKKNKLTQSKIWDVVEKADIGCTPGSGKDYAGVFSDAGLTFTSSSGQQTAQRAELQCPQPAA
Chain of C3b (P01024 749-1663 partner limits assumed): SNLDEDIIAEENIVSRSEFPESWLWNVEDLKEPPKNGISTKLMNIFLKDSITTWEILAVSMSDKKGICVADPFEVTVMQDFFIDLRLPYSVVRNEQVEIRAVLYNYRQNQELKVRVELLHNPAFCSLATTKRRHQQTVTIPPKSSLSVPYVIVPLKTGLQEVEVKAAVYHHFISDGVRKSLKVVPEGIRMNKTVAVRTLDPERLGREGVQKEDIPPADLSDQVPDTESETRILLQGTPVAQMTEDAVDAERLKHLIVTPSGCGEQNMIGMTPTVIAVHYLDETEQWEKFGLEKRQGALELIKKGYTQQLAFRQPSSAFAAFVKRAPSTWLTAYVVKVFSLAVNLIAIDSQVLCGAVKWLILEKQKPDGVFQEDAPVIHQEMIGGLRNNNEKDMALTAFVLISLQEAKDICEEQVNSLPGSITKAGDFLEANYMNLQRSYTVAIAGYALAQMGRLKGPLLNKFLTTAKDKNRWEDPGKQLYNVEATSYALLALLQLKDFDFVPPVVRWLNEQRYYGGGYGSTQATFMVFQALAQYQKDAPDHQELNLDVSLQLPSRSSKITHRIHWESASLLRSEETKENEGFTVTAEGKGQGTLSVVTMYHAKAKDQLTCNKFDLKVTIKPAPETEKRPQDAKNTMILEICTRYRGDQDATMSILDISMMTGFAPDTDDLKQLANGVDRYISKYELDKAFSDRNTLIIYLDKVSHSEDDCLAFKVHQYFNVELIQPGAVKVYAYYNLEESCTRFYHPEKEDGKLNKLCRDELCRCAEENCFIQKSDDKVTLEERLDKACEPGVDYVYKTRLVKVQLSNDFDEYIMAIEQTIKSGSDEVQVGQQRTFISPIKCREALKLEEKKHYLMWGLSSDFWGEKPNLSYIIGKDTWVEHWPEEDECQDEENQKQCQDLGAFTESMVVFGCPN
T1 sequence (P01024 23-667 limits assumed): as the sequence (P01024 23-667 limits assumed) above
T1 sequence (P01024 749-954 partner limits assumed): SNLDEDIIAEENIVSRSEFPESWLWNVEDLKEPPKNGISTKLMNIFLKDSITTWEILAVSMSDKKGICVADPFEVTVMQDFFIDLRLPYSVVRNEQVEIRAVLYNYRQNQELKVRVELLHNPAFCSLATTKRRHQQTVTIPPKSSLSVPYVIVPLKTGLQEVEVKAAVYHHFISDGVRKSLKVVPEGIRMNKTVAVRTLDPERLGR
T1 sequence (P01024 1321-1663 partner limits assumed): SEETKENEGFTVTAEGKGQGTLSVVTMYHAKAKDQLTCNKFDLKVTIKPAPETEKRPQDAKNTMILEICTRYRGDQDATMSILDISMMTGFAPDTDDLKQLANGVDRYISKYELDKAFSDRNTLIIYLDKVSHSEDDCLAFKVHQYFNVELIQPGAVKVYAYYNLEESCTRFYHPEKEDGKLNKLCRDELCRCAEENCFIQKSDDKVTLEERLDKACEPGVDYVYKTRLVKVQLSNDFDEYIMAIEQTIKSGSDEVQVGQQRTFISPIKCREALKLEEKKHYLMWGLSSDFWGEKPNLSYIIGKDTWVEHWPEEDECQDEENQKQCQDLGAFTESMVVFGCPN
Chain of C3 (P01024 23-1663): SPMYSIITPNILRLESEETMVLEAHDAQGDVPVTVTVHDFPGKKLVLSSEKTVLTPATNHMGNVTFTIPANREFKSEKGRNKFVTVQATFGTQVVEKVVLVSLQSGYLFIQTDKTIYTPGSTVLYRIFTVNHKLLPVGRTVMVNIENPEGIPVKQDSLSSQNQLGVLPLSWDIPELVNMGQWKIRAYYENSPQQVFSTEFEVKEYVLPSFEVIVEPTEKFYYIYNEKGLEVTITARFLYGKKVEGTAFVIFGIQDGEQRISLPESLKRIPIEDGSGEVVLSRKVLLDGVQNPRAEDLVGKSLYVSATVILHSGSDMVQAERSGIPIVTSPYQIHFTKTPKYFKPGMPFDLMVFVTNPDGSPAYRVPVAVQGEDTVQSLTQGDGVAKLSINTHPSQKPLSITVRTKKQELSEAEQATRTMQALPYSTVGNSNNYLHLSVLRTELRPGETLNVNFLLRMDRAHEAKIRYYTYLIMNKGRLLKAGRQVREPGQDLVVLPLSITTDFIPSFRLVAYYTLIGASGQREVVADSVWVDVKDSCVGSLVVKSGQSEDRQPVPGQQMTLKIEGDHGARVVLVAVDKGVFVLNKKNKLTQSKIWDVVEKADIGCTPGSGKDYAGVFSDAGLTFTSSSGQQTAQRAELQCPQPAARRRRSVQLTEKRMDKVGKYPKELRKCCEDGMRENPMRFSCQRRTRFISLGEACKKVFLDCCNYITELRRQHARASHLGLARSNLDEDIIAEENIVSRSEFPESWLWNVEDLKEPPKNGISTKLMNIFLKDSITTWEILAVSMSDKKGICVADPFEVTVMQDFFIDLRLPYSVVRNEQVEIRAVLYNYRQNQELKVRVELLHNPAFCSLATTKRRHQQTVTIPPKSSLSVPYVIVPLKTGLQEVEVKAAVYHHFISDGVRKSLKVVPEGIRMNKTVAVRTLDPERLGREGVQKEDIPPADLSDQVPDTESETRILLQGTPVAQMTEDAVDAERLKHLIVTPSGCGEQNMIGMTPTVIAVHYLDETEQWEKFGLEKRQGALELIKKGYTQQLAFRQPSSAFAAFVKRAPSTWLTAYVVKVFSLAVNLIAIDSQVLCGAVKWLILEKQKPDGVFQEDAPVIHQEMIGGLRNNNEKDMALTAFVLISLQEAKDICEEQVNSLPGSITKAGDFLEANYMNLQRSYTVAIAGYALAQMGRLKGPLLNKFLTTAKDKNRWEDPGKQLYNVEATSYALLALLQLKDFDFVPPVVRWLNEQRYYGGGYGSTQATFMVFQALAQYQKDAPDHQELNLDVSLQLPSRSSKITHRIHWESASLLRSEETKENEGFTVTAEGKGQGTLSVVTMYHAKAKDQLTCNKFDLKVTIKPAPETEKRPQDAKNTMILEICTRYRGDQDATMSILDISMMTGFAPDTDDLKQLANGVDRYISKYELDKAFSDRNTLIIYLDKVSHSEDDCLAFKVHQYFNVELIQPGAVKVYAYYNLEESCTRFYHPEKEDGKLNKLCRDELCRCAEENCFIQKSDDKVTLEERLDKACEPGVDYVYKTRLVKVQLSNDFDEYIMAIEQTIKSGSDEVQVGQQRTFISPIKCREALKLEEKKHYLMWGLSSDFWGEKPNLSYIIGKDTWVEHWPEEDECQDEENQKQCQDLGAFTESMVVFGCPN

Kd [2]: 0.509 nM | Chi^2 ([2]; chi^2 of fit, C3c, Biacore): 0.05 | Rmax ([2]; maximal feasible signal, C3c, Biacore): 4.65 | Kd ([5]; Affinity to C3 KD, Table 25): 0.63 nM | Kd ([5]; KD, equilibrium dissociation constant, room temperature, pH 7.4): 0.629 nM | Chi^2 ([5]; chi^2 of fit): 0.10 | Rmax ([5]; maximal feasible signal): 25.70 | Kd ([6]; Affinity to C3b KD, C3b, Biacore, Table 25): 0.32 nM | Rmax (maximal feasible signal) ([6]; C3b immobilized): 3.18 | Chi^2 ([6]; C3b immobilized, fit): 0.12 | Kd ([6]; KD, C3b immobilized, 1:1 (Langmuir) binding): 0.324 nM
Structure (SMILES): CC[C@H](C)[C@H](NC(=O)[C@H](N)Cc1ccc(O)cc1)C(=O)N[C@H]1CSSC[C@@H](C(=O)N(C)[C@H](C(N)=O)[C@@H](C)CC)NC(=O)[C@H](CCCNC(=N)N)NC(=O)[C@H](Cc2c[nH]cn2)NC(=O)[C@H](C)NC(=O)CN(C)C(=O)[C@H](Cc2c[nH]c3ccccc23)NC(=O)[C@H](CC(=O)O)NC(=O)[C@H](CCC(N)=O)NC(=O)[C@H](Cc2cn(C)c3ccccc23)NC(=O)[C@H](C(C)C)NC1=O [CP40]
cell lysis inhibition [1]: marginal inhibition | cGMP production [3]: not | Estimated IC50 of hemolysis inhibition ([4]; NHS dose causing 70% hemolysis): 0.78 µM | Bioactivity IC50 Change ([4]; change of estimated IC50 relative to CP40): 1 fold | IC50 ([4]; estimated IC50, read-out: Bioactivity IC50): 780 nM
